From patent US20190011433A1, “CELL CO-CULTURE SYSTEMS AND USES THEREOF” (Dana-Farber Cancer Institute, Inc., priority 2007, published 2019)
Entries after “also recorded” stand apart in the source; their conditions may differ.

Columns and labels:
[1] = system: MM-1R-GFP-luc myeloma cells; assay: CS-BLI drug sensitivity of MM-1R-GFP-luc cells in presence vs absence of stromal cells; details: MM-1R-GFP-luc (Dex-resistant), presence vs absence of HS-5 BMSCs (10,000 per well)
[2] = system: MM-1S-GFP-luc myeloma cells; assay: CS-BLI drug sensitivity of MM-1S-GFP-luc cells in presence vs absence of stromal cells; type: cell-based, human; details: presence vs absence of HS-5 BMSCs (10,000 per well)
Method: Luciferin (7.5 mg/mL; Xenogen Corp, Alameda, Calif.) was added at the volume stated in each experiment. Cell viability and the precise cell counts were established by Trypan blue exclusion assay immediately before plating of the cells. Compartment-specific bioluminescence emitted by individual wells of these plates was measured with two different bioluminescence imaging modalities, namely a Xenogen IVIS® Imaging System (FIG. 1A and FIG. 1B) and a standard luminometer plate reader—Luminoskan luminometer (Labsystems, MA) (FIG. 1C). The results with each method were analyzed for the linearity of the bioluminescent signal vs. cell number using the Living Image® software (Xenogen Corp, Alameda Calif.).

[3] = system: MDA-MB-231met-luc-neo cells; assay: CS-BLI drug sensitivity of MDA-MB-231met-luc-neo cells alone or with HS-5 BMSCs; type: cell-based; details: MDA-MB-231met-luc-neo alone or with HS-5 BMSCs (10,000/well), 48 hrs
Method: (§1) MDA-MB-231met-luc-neo (FIG. 18A, FIG. 18B), A375-luc-neo (FIG. 18C, FIG. 18D) and FRO-luc-neo (FIG. 18E, FIG. 18F) cells were plated either alone or mixed with HS-5 BMSCs (10,000 /well) and treated the following day. The cultures of tumor cells and their co-cultures with BMSCs were incubated for an additional 48 hrs.

A375-luc-neo cells = assay: CS-BLI drug sensitivity of A375-luc-neo cells alone or with HS-5 BMSCs; type: cell-based; details: A375-luc-neo alone or with HS-5 BMSCs (10,000/well), 48 hrs
Method: as §1

FRO-luc-neo cells = assay: CS-BLI drug sensitivity of FRO-luc-neo cells alone or with HS-5 BMSCs; type: cell-based; details: FRO-luc-neo alone or with HS-5 BMSCs (10,000/well), 48 hrs
Method: as §1

[4] = system: KU812F-luc leukemia cells; assay: CS-BLI drug sensitivity of KU812F-luc leukemia cells in presence vs absence of HS-5 BMSCs; type: cell-based; details: presence vs absence of HS-5 BMSCs (10,000 per well)
Description: In another set of experiments, Applicants tested and observed similar protective/sensitization effect of stroma cell on KU812F-luc cells on various drugs (data not shown).
(§2) Applicants expanded the application of in vitro compartment-specific bioluminescence imaging assays beyond the MM cells to other tumor models, namely a few leukemic cell lines. Applicants specifically tested luciferase-expressing K562-luc-neo and KU812F-luc-neo leukemic cells against standard anti-leukemia agents, including AraC and Doxo, in the presence vs. absence of HS-5 stromal cells (FIG. 7A and FIG. 7B).

K562-luc leukemia cells = assay: CS-BLI drug sensitivity of K562-luc leukemia cells in presence vs absence of HS-5 BMSCs; type: cell-based; details: presence vs absence of HS-5 BMSCs (10,000 per well)
Description: as §2

[5] = system: MM.1S-GFP-luc target cells; assay: CS-BLI killing of MM.1S-GFP-luc target cells by IL-2 stimulated PBMCs; type: cell-based, human; details: for effect of concurrent drug exposure of co-culture on activity of PBMCs to kill tumor targets: 2 μM CC5013, 2 μM CC4047, 20 nM PS-341 or 100 nM Dex during co-culture; for effect of concurrent drug exposure of co-culture on activity of PBMCs to kill tumor targets / effect of drug pretreatment of PBMCs on activity of PBMCs to kill tumor targets: MM.1S-GFP-luc targets; for effect of drug pretreatment of PBMCs on activity of PBMCs to kill tumor targets: PBMCs pretreated 24 hrs with IL-2 plus 1 μM CC5013, 1 μM CC4047, 10 nM PS-341 or 50 nM Dexamethasone, washed
Method: (§3) PBMCs were isolated from a healthy donor, stimulated for 24 hrs with 10 ng/mL of IL-2 and then combined in culture with 5000 tumor target cells. The human multiple myeloma line, MM.1S-GFP-luc (FIG. 27A), was used as target cells and combined with PBMCs at 1:1, 1:5, 1:10, 1:20 and 1:40 ratios. The basophilic leukemia line, KU812F-luc-neo (FIG. 27B), was used as target cells and combined with PBMCs from the same donor at 1:1, 1:5, 1:10, 1:20 and 1:40 ratios. Viability of tumor cells was assessed using bioluminescence detection after the addition of luciferin substrate following 4 hours of co-culture with immune effector cells.
(§4) PBMCs were isolated from a healthy donor, stimulated for 24 hrs with IL-2 in the presence of either 1 μM CC5013 (FIG. 29A), 1 μM CC4047 (FIG. 29B), 10 nM PS-341 (FIG. 29C), or 50 nM Dexamethasone (FIG. 29D). PBMCs were washed and combined in culture with MM.1S-GFP-luc target cells at the 1:1, 1:2.5, 1:5, 1:10, 1:20 and 1:40 target to effector ratios.
PBMCs were isolated from a healthy donor, stimulated for 24 hrs with IL-2 in the presence or absence of 1 μM CC4047. MM.1S-GFP-luc cells were cultured in the presence or absence of 1 μM CC4047. PBMCs and MM.1S-GFP-luc cells were washed to remove drug and combined in culture with target MM.1S-GFP-luc target cells, either pretreated with 1 μM CC4047 or without, and combined at 1:1, 1:2.5, 1:5, 1:10, 1:20 and 1:40 target to effector ratios in the absence of drug.
PBMCs were isolated from a healthy donor, stimulated for 24 hrs with IL-2. PBMCs were combined in culture with MM.1S-GFP-luc target cells at the 1:1, 1:2.5, 1:5, 1:10, 1:20 and 1:40 target to effector ratios in the presence or absence of 2 μM CC5013 (FIG. 32A), 2 μM CC4047 (FIG. 32B), 20 nM PS-341 (FIG. 32C), or 100 nM Dex (FIG. 32D) during co-culture.

[6] = system: KU812F-luc-neo target cells; assay: CS-BLI killing of KU812F-luc-neo target cells by IL-2 stimulated PBMCs; type: cell-based; details: for effect of concurrent drug exposure of co-culture on activity of PBMCs to kill tumor targets: 2 μM CC5013, 2 μM CC4047, 20 nM PS-341 or 100 nM Dex during co-culture; for effect of drug pretreatment of PBMCs on activity of PBMCs to kill tumor targets: PBMCs pretreated 24 hrs with IL-2 plus 1 μM CC5013, 1 μM CC4047, 10 nM PS-341 or 50 nM Dexamethasone, washed
Method: as §3
as §4, with “with” for “in the presence of”, “30A),” for “29A),”, “30B),” for “29B),”, “30C),” for “29C),”, “30D).” for “29D).”, “KU812F-luc-neo” for “MM.1S-GFP-luc”
PBMCs were isolated from a healthy donor, stimulated for 24 hrs with IL-2. PBMCs were then washed and combined in culture with KU812F-luc-neo target cells at the 1:1, 1:2.5, 1:5, 1:10, 1:20 and 1:40 target to effector ratios in the presence or absence 2 μM CC5013 (FIG. 33A), 2 μM CC4047 (FIG. 33B), 20 nM PS-341 (FIG. 33C), or 100 nM Dex (FIG. 33D).

MM = details: cited from earlier work
[7] = system: Multiple myeloma (MM) cells; details: cited from earlier work

| SMILES | effect of BMSC co-culture on tumor cell response to drug (protection) [4] | effect of BMSC co-culture on tumor cell response to drug (protection) (K562-luc leukemia cells) | effect of concurrent drug exposure of co-culture on activity of PBMCs to kill tumor targets [5] | effect of drug pretreatment of PBMCs on activity of PBMCs to kill tumor targets [5] | effect of concurrent drug exposure of co-culture on activity of PBMCs to kill tumor targets [6] | effect of drug pretreatment of PBMCs on activity of PBMCs to kill tumor targets [6] | also measured |
| --- | --- | --- | --- | --- | --- | --- | --- |
| CC1=C2C(=O)[C@H]3[C@@H](CC=C4C[C@@H](O)CC[C@@]43C)[C@@H]2CC[C@]12O[C@@H]1C[C@H](C)CN[C@H]1[C@H]2C [11-keto-cyclopamine] |  |  |  |  |  |  | effect of BMSC co-culture on tumor cell response to drug (protection) [1]: conferred protection; effect of BMSC co-culture on tumor cell response to drug (protection) [2]: conferred protection |
| Nc1ccn([C@@H]2O[C@H](CO)[C@@H](O)[C@@H]2O)c(=O)n1 [AraC] | decreased the responsiveness; also recorded: confer protection | protection was observed |  |  |  |  | effect of BMSC co-culture on tumor cell response to drug (protection) [3]: modest protection; effect of BMSC co-culture on tumor cell response to drug (protection) (A375-luc-neo cells): considerable level of protection; effect of BMSC co-culture on tumor cell response to drug (protection) (FRO-luc-neo cells): no protection; effect of BMSC co-culture on tumor cell response to drug (protection) ([4]; listed as Ara-C): develop stromal-derived resistance |
| Nc1cccc2c1C(=O)N(C1CCC(=O)NC1=O)C2=O (stereo not shown) [CC4047] |  |  | increased activity | did not have a significant impact; also recorded: no significant increasing in activity | significant difference increasing the activity | did have a significant impact on increasing | effect of drug pretreatment of target myeloma cells on killing by PBMCs ([5]; MM.1S-GFP-luc cells pretreated with 1 μM CC4047, washed): significant increase |
| Nc1cccc2c1CN(C1CCC(=O)NC1=O)C2=O (stereo not shown) [CC5013] |  |  | had an increase in the activity | did not have a significant impact | significant difference increasing the activity | did not have a significant impact |  |
| Cc1ccc(NC(=O)c2ccc(CN3CCN(C)CC3)cc2)cc1Nc1nccc(-c2cccnc2)n1 [Imatinib, imatinib] | confer protection | do not confer protection |  |  |  |  | effect of BMSC co-culture on tumor cell response to drug (protection) ([4]; listed as imatinib): develop stromal-derived resistance; also recorded: decreased the responsiveness; effect of BMSC co-culture on tumor cell response to drug (protection) (K562-luc leukemia cells; listed as imatinib): do not exhibit such phenotype |
| CC(C)C[C@H](NC(=O)[C@H](Cc1ccccc1)NC(=O)c1cnccn1)B(O)O [PS-341, bortezomib] |  |  | decreased activity | did have a significant impact on blocking | significant difference blocking the activity | did have a significant impact on blocking | effect of BMSC co-culture on tumor cell response to drug (protection) [1]: confer no protection; effect of BMSC co-culture on tumor cell response to drug (protection) ([1]; listed as bortezomib): did not abrogate the responsiveness; effect of BMSC co-culture on tumor cell response to drug (protection) ([2]; listed as bortezomib): did not abrogate the responsiveness |
| Nc1cccc2c1CN(C1CCC(=O)NC1=O)C2=O (stereo not shown) [lenalidomide] |  |  |  |  |  |  | anti-MM activity in vivo (MM): potent; single-agent in vitro anti-MM activity [7]: modest |
| Cc1cn(-c2cc(NC(=O)c3ccc(C)c(Nc4nccc(-c5cccnc5)n4)c3)cc(C(F)(F)F)c2)cn1 [nilotinib] | confer protection | do not confer protection |  |  |  |  |  |
| O=C1CCC(N2C(=O)c3ccccc3C2=O)C(=O)N1 (stereo not shown) [thalidomide] |  |  |  |  |  |  | anti-MM activity in vivo (MM): potent; single-agent in vitro anti-MM activity [7]: modest |
